One data set deals with T1, LuxN (Vibrio campbellii, UniProt A7MRY4).
T1 construct: Light production from wild type V. harveyi (BB120), a luxPQ mutant (BB960), and a luxPQ, luxS double mutant (JMH624) was measured; endogenous in cells; host or cells: V. harveyi BB120, BB960 (luxQ::Tn5), JMH624 (ΔluxM, luxQ::Tn5)
Put plainly: V. harveyi bioluminescence dose-response. To be noted: IC50 for inhibition of bioluminescence. The class given is cell-based, Vibrio harveyi. On the procedure:
Wild type C. violaceum strain ATCC31532 was purchased from the ATCC. The cviI mutant strain, CV026 was kindly supplied by Clay Fuqua and Paul Williams. C. violaceum strains were grown aerobically at 30° C. in either Luria-Bertani broth or Nutrient Broth supplemented with 1 mM trypotophan. V. harveyi strains were grown aerobically at 30° C. in autoinducer bioassay (AB) broth. AI-1 dose-response curves were generated in V. harveyi strains BB120, BB960 and JMH624 as described. E. coli was grown at 37° C. in Luria Bertani broth. The plasmid pET23b (Novagen) was used for expressing cviR in E. coli strain BL21-Gold (DE3) or BL21(DE3) pLysS (Stratagene) and maintained by inclusion of Ampicillin at 100 μg/ml. Plasmid pEVS141 was used for the vioA-gfp promoter fusion and maintained with 50 μg/ml of Kanamycin. C. elegans wild type strain, N2 was used for all of the nematode infection studies. Worms were propagated on Nematode Growth Media (NGM) medium with an E. coli OP50 lawn as the food source and allowed to multiply at 20° C.
To determine the properties of CTL and CL in relation to the LuxN receptor, the in vivo activity was examined of 4606-4237, CTL, and CL for V. harveyi LuxN using dose response analyses of the endogenous quorum-sensing-activated target, bioluminescence. Three different V harveyi strains were examined (1) The wild type V. harveyi strain BB120 which has multiple quorum-sensing circuits, and thus responds to multiple autoinducers, only one of which is the AHL acting through LuxN. (2) V. harveyi BB960 which lacks the receptor for the second autoinducer making the AHL-LuxN circuit the dominant input into bioluminescence expression. (3) V. harveyi JMH624 which, in addition to lacking the receptor for the second autoinducer lacks the AHL synthase LuxM. Thus, V. harveyi JMH624 induces bioluminescence exclusively in response to the AHL, 3OH-C4-HSL signal but only when it is supplied exogenously. Exogenous addition of 20 nM 3OH-C4-HSL is sufficient to induce maximal bioluminescence in all of these strains.

The target in data set [1] is T2, CviR (Chromobacterium violaceum, UniProt D3W065). To be noted: CviR expressed in E. coli, whole cell vs soluble extract, ligand 50 μM. Here is the method: (§1) CviR Overexpression and Purification. CviR was overexpressed in BL21(DE3) pLysS by growing an overnight culture in LB supplemented with 100 μg/mL ampicillin and 10 μg/mL chloramphenicol. The culture was diluted 1:50 into fresh LB supplemented with 100 μg/mL ampicillin and 10 μg/mL chloramphenicol and grown shaking at 37° C. to an OD600 of 0.4. Various AHL or antagonist molecules were added to at 50 μM and incubated an additional 30 minutes at 30° C., after which expression was induced by the addition of 100 μM IPTG (isopropyl-β-D-thiogalactopyranoside) for 4 hours at 30° C. Cells were harvested by centrifugation and lysed in 20 mM imidazole pH 8.0, 100 mM NaCl, 0.5 mM EDTA and 5% glycerol via a Micro-fluidizer processor (MicroFluidics). Protein was purified via ion-exchange using a Hitrap Heparin HP column (GE Healthcare). Protein was eluted with a 100 mM to 1 M NaCl gradient. Fractions containing CviR were pooled and diluted in lysis buffer devoid of NaCl, and then further purified by cation exchange chromatography using a Hitrap SP HP column (GE Healthcare). CviR was eluted with a 100 mM to 1 M NaCl gradient.
T2 sequence (D3W065 1-265): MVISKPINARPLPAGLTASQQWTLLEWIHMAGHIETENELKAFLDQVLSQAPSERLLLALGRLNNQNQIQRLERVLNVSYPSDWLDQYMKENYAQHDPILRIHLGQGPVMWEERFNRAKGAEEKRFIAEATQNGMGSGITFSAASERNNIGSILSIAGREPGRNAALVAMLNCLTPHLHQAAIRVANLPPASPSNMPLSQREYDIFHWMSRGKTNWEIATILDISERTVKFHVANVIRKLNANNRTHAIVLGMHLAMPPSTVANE
The solubility characteristics of CviR were analyzed in the presence of the various molecules under study. […] As controls, the protein was also expressed in the absence of any AHL or antagonist. In each case, whole cell and soluble fractions of cell lysates were analyzed by SDS-PAGE to assess whether the CviR protein in question had been stabilized.

Data set [2] has as its target T2, CviR. The class given is binding. The arrangement: made in house; host or cells: E. coli BL21(DE3) pLysS, plasmid pET23b. To be noted: for DNA binding of ligand-loaded CviR to vioA promoter: CviR 100-500 nM. Here is the method:
as §1
DNA probes for gel mobility shift analyses were generated by standard polymerase chain reaction using primers with a 5′ 6-FAM (fluorescein) tag (Integrated DNA Technologies). The target probe contained about 100 nucleotides of the vioA promoter. The control probe contained 300 bases of vioB intergenic DNA. 37 ng of each probe was incubated for 20 minutes at room temperature with the indicated amounts of CviR (0, 0.1, 0.2, 0.3, 0.4 and 0.5 μM) and 1 μg/μL poly-dIdC in 1× Gel shift buffer (40 mM Tris HCl pH 8.0, 100 mM KCL, 2 mM EDTA, 2 mM DTT, 10% glycerol, 200 μg/mL BSA). Gel mobility shifts were performed on 6% TGE-polyacrylamide gels and visualized using a Storm 860 Imaging System (Molecular Dynamics).
To further investigate the mechanism underlying antagonism of the CviR receptor, an examination was undertaken of whether the soluble CviR antagonist complexes were incapable of binding DNA, and thus unable to activate transcription. […] The CviR protein was also purified in complex with each of the synthetic antagonist molecules, 4606-4237, CTL, and CL. Performance of DNA gel mobility shift analyses enabled assessment of the binding of each of these purified, loaded protein complexes to the vioA promoter.
The reciprocal experiment tested whether C6-HSL could replace CL bound to CviR.

Setting [3] is: V. harveyi JMH624 + 20 nM 3OH-C4-HSL.

T1 sequence (A7MRY4 whole entry): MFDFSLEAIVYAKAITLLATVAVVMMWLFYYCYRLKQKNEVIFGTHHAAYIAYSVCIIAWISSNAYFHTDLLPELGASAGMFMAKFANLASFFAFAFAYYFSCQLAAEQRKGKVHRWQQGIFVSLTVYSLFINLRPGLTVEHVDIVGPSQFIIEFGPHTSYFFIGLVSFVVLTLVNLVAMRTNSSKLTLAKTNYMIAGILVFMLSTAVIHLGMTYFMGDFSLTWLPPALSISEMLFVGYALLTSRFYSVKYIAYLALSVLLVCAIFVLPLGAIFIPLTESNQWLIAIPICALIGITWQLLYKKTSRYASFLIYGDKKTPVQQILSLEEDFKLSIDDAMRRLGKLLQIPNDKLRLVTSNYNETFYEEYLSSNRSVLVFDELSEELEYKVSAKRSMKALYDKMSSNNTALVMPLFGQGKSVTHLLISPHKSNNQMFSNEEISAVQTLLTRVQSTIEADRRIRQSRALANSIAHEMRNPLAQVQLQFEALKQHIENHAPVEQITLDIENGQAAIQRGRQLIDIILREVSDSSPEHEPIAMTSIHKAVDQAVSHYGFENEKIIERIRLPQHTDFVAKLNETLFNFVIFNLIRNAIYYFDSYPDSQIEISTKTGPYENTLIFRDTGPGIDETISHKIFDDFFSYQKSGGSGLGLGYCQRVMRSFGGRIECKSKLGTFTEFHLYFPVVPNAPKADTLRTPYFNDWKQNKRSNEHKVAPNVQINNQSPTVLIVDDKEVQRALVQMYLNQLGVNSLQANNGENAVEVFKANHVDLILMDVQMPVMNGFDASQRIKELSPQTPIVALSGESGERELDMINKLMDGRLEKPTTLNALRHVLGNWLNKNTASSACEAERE

Consider `O=C(CCCOc1ccc(Cl)cc1)NC1CCOC1=O` (centres unmarked) [CL, chlorolactone], for which the half-inhibitory concentration (IC50) is 14 µM on LuxN (V. harveyi BB960), 0.873 µM on LuxN (setting [3]) and 40 µM on LuxN (wild type V. harveyi BB120). Besides, the “CviR folding and solubility in presence of ligand” value at CviR [1] is “promoted CviR31532 folding and solubility”. In addition, the “ligand exchange on loaded CviR, effect on DNA binding” value on CviR [2] (500 nM loaded CviR, competing ligand 0-10 μM) is on record as “DNA binding decreased in a dose dependent manner”. Further, the “DNA binding of ligand-loaded CviR to vioA promoter” value on CviR [2] is listed as “no ability to bind DNA”.
As to `O=C(CCCOc1ccc(Cl)cc1)NC1CCSC1=O` (centres unmarked) [CTL, Chloro-thiolactone], the IC50 at LuxN (V. harveyi BB960) was 28 µM; at LuxN (setting [3]), 6 µM; against LuxN (wild type V. harveyi BB120), 150 µM. In addition, the “CviR folding and solubility in presence of ligand” value on CviR [1] is “promoted CviR31532 folding and solubility”. Besides, on CviR [2], the “DNA binding of ligand-loaded CviR to vioA promoter” value is on record as “no ability to bind DNA”.

A word on the IC50: it is the midpoint of a concentration-inhibition curve.

For the origin of these results see patent US9468624B2, “Small molecule antagonists of bacterial quorum-sensing receptors” (priority 2008, dated 2016).
